Test results taken from patent publication US20240116985A1, “STAPLED PEPTIDES AND METHODS THEREOF” (priority 2020, published 2024).
Converted amounts (≈) assume the structure as drawn. Read-outs that look alike come from different tables or passages of the source.

What was measured:
[1] = biological target: T1, full-length beta-Catenin (Uniprot ID P35222) (Homo sapiens, UniProt P35222); assay: Fluorescence polarization IC50 (beta-catenin / 5FAM-TCF4 10-53 competition); format: binding
T1 construct: 10 nM full-length beta-Catenin (Uniprot ID P35222)
T1 sequence (P35222 1-781): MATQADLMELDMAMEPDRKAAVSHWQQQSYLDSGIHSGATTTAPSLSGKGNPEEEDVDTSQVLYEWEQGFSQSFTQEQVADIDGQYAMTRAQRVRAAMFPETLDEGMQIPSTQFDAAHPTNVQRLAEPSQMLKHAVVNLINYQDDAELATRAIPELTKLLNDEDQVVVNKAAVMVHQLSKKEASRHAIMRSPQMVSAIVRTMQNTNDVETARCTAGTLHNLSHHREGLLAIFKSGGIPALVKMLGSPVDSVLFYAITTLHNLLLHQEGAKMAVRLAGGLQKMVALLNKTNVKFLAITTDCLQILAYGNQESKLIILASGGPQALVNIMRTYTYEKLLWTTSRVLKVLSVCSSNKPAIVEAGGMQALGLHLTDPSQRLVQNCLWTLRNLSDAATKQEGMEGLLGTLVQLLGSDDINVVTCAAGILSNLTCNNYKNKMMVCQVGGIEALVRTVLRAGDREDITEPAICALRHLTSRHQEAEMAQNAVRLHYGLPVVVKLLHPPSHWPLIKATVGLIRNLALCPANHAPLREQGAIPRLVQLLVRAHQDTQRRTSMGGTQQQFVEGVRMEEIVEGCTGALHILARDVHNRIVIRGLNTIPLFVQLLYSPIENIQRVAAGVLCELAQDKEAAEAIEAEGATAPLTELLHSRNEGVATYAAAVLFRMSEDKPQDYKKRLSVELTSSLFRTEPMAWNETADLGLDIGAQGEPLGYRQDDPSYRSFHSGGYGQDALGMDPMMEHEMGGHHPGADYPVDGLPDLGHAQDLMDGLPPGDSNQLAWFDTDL

Solubility in PBS = format: physicochemical
Method in brief: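 PBS sample ultracentrifuged; supernatant run on HPLC vs. 50 μM peptide in DMSO standard. Solubility = (PBS peak area / DMSO peak area) × 50 uM.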

CHI Log D procedure = format: physicochemical
[2] = Table E2-1, read-out: beta-Catenin FP IC50
[3] = fluorescence polarization, beta-catenin, read-out: FP EC50

## CC(=O)N1CCC[C@]12CC=CCCCC1(CCCC=CCCCCCC[C@@](C)(C(=O)N[C@@H](Cc3ccccc3C(N)=O)C(=O)N[C@@H](Cc3csc4ccccc34)C(=O)N[C@@H](CCC(N)=O)C(N)=O)NC(=O)[C@H](C(C)C)NC(=O)[C@H](Cc3ccccc3)NC(=O)[C@H](C)NC(=O)[C@H](C)NC(=O)[C@H](CC(=O)O)NC(=O)[C@H](CC(=O)O)NC1=O)NC(=O)[C@H](C)NC(=O)[C@H](CC(=O)O)NC2=O (stereo partly drawn) [I-336, Ac-PL3-Asp-Ala-B5-Asp-Asp-Ala-Ala-Phe-Val-S8-2CBMF-BztA-Gln-NH2]
[1]; [2]
  IC50: 153 nM
Solubility in PBS; Solubility (uM)
  Solubility: 48 µM (≈ 88.4 µg/mL)
CHI Log D procedure; pH 7.4, CHI Log D
  chromatographic logD: 1.74

## CC(=O)N1CCC[C@]12CC=CCCCC1(CCCC=CCCCCCC[C@@](C)(C(=O)N[C@@H](Cc3ccc(O)cc3)C(=O)N[C@@H](Cc3csc4ccccc34)C(=O)N[C@@H](CCC(N)=O)C(N)=O)NC(=O)[C@H](C(C)C)NC(=O)[C@H](Cc3ccccc3)NC(=O)[C@H](C)NC(=O)[C@H](C)NC(=O)[C@H](CC(=O)O)NC(=O)[C@H](CC(=O)O)NC1=O)NC(=O)[C@H](C)NC(=O)[C@H](CC(=O)O)NC2=O (stereo partly drawn) [I-341, Ac-PL3-Asp-Ala-B5-Asp-Asp-Ala-Ala-Phe-Val-S8-Tyr-BztA-Gln-NH2]
[1]; [2]
  IC50: 2000 nM
Solubility in PBS; Solubility (uM)
  Solubility: 38 µM (≈ 68.9 µg/mL)
CHI Log D procedure; pH 7.4, CHI Log D
  chromatographic logD: 1.73

## CC(=O)N1CCC[C@]12CC=CCCCC1(CCCC=CCCCCCC[C@@](C)(C(=O)N[C@@H](Cc3ccccc3)C(=O)N[C@@H](Cc3csc4ccccc34)C(=O)N[C@@H](CCC(N)=O)C(N)=O)NC(=O)[C@H]([C@@H](C)O)NC(=O)[C@H](Cc3ccccc3)NC(=O)[C@H](C)NC(=O)[C@H](C)NC(=O)[C@H](CC(=O)O)NC(=O)[C@H](CC(=O)O)NC1=O)NC(=O)[C@H](C)NC(=O)[C@H](CC(=O)O)NC2=O (stereo partly drawn) [I-342, Ac-PL3-Asp-Ala-B5-Asp-Asp-Ala-Ala-Phe-Thr-S8-Phe-BztA-Gln-NH2]
[1]; [2]
  IC50: 58.5 nM
Solubility in PBS
  Solubility: 50 µM (≈ 90 µg/mL)
CHI Log D procedure; pH 7.4, CHI Log D
  chromatographic logD: 2.07

## CC(=O)N1CCC[C@]12CC=CCCCC1(CCCC=CCCCCCC[C@@](C)(C(=O)N[C@@H](Cc3ccccc3)C(=O)N[C@@H](Cc3csc4ccccc34)C(=O)N[C@@H](CCC(N)=O)C(N)=O)NC(=O)[C@H](CC(N)=O)NC(=O)[C@H](Cc3ccccc3)NC(=O)[C@H](C)NC(=O)[C@H](C)NC(=O)[C@H](CC(=O)O)NC(=O)[C@H](CC(=O)O)NC1=O)NC(=O)[C@H](C)NC(=O)[C@H](CC(=O)O)NC2=O (stereo partly drawn) [I-343, Ac-PL3-Asp-Ala-B5-Asp-Asp-Ala-Ala-Phe-Asn-S8-Phe-BztA-Gln-NH2]
[1]; [2]
  IC50: 172 nM
[1]; [3]
  IC50: 172 nM
Solubility in PBS
  Solubility: 50 µM (≈ 90.7 µg/mL)
CHI Log D procedure; pH 7.4
  CHI Log D: 1.931

## CC(=O)N1CCC[C@]12CC=CCCCC1(CCCC=CCCCCCC[C@@](C)(C(=O)N[C@@H](Cc3ccccc3)C(=O)N[C@@H](Cc3csc4ccccc34)C(=O)N[C@@H](CCC(N)=O)C(N)=O)NC(=O)[C@H](CC(N)=O)NC(=O)[C@H](Cc3ccccc3)NC(=O)[C@H](C)NC(=O)[C@H](C)NC(=O)[C@H](CC(=O)O)NC(=O)[C@H](CC(=O)O)NC1=O)NC(=O)[C@H](C)NC(=O)[C@H](CC(=O)O)NC2=O (stereo partly drawn) [I-344, Ac-PL3-Asp-Ala-B5-Asp-Asp-Ala-Ala-Phe-Asn-S8-Phe-BztA-Gln-NH2]
[1]; [2]
  IC50: 42 nM
[1]; [3]
  IC50: 42 nM
Solubility in PBS
  Solubility: 44 µM (≈ 79.8 µg/mL)
CHI Log D procedure; pH 7.4
  CHI Log D: 1.977

## COC[C@@H]1NC(=O)[C@H](CC(=O)O)NC(=O)[C@]2(CC=CCCCC3(CCCC=CCCCCCC[C@@](C)(C(=O)N[C@@H](Cc4ccccc4)C(=O)N[C@@H](Cc4csc5ccccc45)C(=O)N[C@@H](CCC(N)=O)C(N)=O)NC(=O)[C@H](C(C)C)NC(=O)[C@H](Cc4ccccc4)NC(=O)[C@H](C)NC(=O)[C@H](C)NC(=O)[C@H](CC(=O)O)NC(=O)[C@H](CC(=O)O)NC3=O)NC1=O)CCCN2C(C)=O (stereo partly drawn) [I-345, Ac-PL3-Asp-S(OMe)-B5-Asp-Asp-Ala-Ala-Phe-Val-S8-Phe-BztA-Gln-NH2]
[1]; [2]
  IC50: 134 nM
Solubility in PBS; Solubility (uM)
  Solubility: 49 µM (≈ 89.6 µg/mL)
CHI Log D procedure; pH 7.4, CHI Log D
  chromatographic logD: 2.14

## CC(=O)N1CCC[C@]12CC=CCCCC1(CCCC=CCCCCCC[C@@](C)(C(=O)N[C@@H](Cc3ccccc3)C(=O)N[C@@H](Cc3csc4ccccc34)C(=O)N[C@@H](CCC(N)=O)C(N)=O)NC(=O)[C@H](C(C)C)NC(=O)[C@H](Cc3ccccc3)NC(=O)[C@H](C)NC(=O)[C@H](C)NC(=O)[C@H](CC(=O)O)NC(=O)[C@H](CC(=O)O)NC1=O)NC(=O)[C@H](CCC(N)=O)NC(=O)[C@H](CC(=O)O)NC2=O (stereo partly drawn) [I-346, Ac-PL3-Asp-Gln-B5-Asp-Asp-Ala-Ala-Phe-Val-S8-Phe-BztA-Gln-NH2]
[1]; [2]
  IC50: 180 nM
[1]; [3]
  IC50: 180 nM
Solubility in PBS
  Solubility: 44 µM (≈ 81.6 µg/mL)
CHI Log D procedure; pH 7.4
  CHI Log D: 1.943

## CC(=O)N1CCC[C@]12CC=CCCCC1(CCCC=CCCCCCC[C@@](C)(C(=O)N[C@@H](Cc3ccccc3)C(=O)N[C@@H](Cc3csc4ccccc34)C(=O)N[C@@H](CCC(N)=O)C(N)=O)NC(=O)[C@H](C(C)C)NC(=O)[C@H](Cc3ccccc3)NC(=O)[C@H](C)NC(=O)[C@H](C)NC(=O)[C@H](CC(=O)O)NC(=O)[C@H](CC(=O)O)NC1=O)NC(=O)[C@H](CCC(N)=O)NC(=O)[C@H](CC(=O)O)NC2=O (stereo partly drawn) [I-347, Ac-PL3-Asp-Gln-B5-Asp-Asp-Ala-Ala-Phe-Val-S8-Phe-BztA-Gln-NH2]
[1]; [2]
  IC50: 121 nM
[1]; [3]
  IC50: 121 nM
Solubility in PBS
  Solubility: 50 µM (≈ 92.8 µg/mL)
CHI Log D procedure; pH 7.4
  CHI Log D: 1.956

## CC(=O)N1CCC[C@]12CC=CCCCC1(CCCC=CCCCCCC[C@@](C)(C(=O)N[C@@H](Cc3ccccc3)C(=O)N[C@@H](Cc3c[nH]c4ccccc34)C(=O)N[C@@H](CCC(N)=O)C(N)=O)NC(=O)[C@H](C(C)C)NC(=O)[C@H](Cc3ccccc3)NC(=O)[C@H](C)NC(=O)[C@H](C)NC(=O)[C@H](C)NC(=O)[C@H](CC(=O)O)NC1=O)NC(=O)[C@H](C)NC(=O)[C@H](CC(=O)O)NC2=O (stereo partly drawn) [I-352, Ac-PL3-Asp-Ala-B5-Asp-Ala-Ala-Ala-Phe-Val-S8-Phe-Trp-Gln-NH2]
[1]; beta-Catenin FP IC50 (nM), Table E2-1
  IC50: 5000 nM
Solubility in PBS
  Solubility: 10 µM (≈ 17.4 µg/mL)
CHI Log D procedure; pH 7.4
  chromatographic logD: 2.51

## CC(=O)N1CCC[C@]12CC=CCCCC1(CCCC=CCCCCCC[C@@](C)(C(=O)N[C@@H](Cc3ccc(C#N)cc3)C(=O)N[C@@H](Cc3csc4ccccc34)C(=O)N[C@@H](CCC(N)=O)C(N)=O)NC(=O)[C@H](C(C)C)NC(=O)[C@H](Cc3ccccc3)NC(=O)[C@H](C)NC(=O)[C@H](C)NC(=O)[C@H](CC(=O)O)NC(=O)[C@H](CC(=O)O)NC1=O)NC(=O)[C@H](C)NC(=O)[C@H](CC(=O)O)NC2=O (stereo partly drawn) [I-359, Ac-PL3-Asp-Ala-B5-Asp-Asp-Ala-Ala-Phe-Val-S8-4CNF-BztA-Gln-NH2]
[1]; [2]
  IC50: 5000 nM
Solubility in PBS; Solubility (uM)
  Solubility: 30 µM (≈ 54.7 µg/mL)
CHI Log D procedure; pH 7.4, CHI Log D
  chromatographic logD: 2.06

## CC(=O)N1CCC[C@]12CC=CCCCC1(CCCC=CCCCCCC[C@@](C)(C(=O)N[C@@H](Cc3ccccc3)C(=O)N[C@@H](Cc3csc4ccccc34)C(=O)N[C@@H](Cc3c[nH]cn3)C(N)=O)NC(=O)[C@H](CCC(N)=O)NC(=O)[C@H](Cc3ccccc3)NC(=O)[C@H](C)NC(=O)[C@H](C)NC(=O)[C@H](CC(=O)O)NC(=O)[C@H](CC(=O)O)NC1=O)NC(=O)[C@H](C)NC(=O)[C@H](CC(=O)O)NC2=O (stereo partly drawn) [I-360, Ac-PL3-Asp-Ala-B5-Asp-Asp-Ala-Ala-Phe-Gln-S8-Phe-BztA-His-NH2]
[1]; [2]
  IC50: 146 nM
[1]; [3]
  IC50: 146 nM
Solubility in PBS
  Solubility: 44 µM (≈ 80.8 µg/mL)
CHI Log D procedure; pH 7.4
  CHI Log D: 2.017

## CC(=O)N1CCC[C@]12CC=CCCCC1(CCCC=CCCCCCC[C@@](C)(C(=O)N[C@@H](Cc3ccccc3)C(=O)N[C@@H](Cc3csc4ccccc34)C(=O)N[C@@H](Cc3c[nH]cn3)C(N)=O)NC(=O)[C@H](CCC(N)=O)NC(=O)[C@H](Cc3ccccc3)NC(=O)[C@H](C)NC(=O)[C@H](C)NC(=O)[C@H](CC(=O)O)NC(=O)[C@H](CC(=O)O)NC1=O)NC(=O)[C@H](C)NC(=O)[C@H](CC(=O)O)NC2=O (stereo partly drawn) [I-361, Ac-PL3-Asp-Ala-B5-Asp-Asp-Ala-Ala-Phe-Gln-S8-Phe-BztA-His-NH2]
[1]; [2]
  IC50: 42 nM
[1]; [3]
  IC50: 42 nM
Solubility in PBS
  Solubility: 46 µM (≈ 84.5 µg/mL)
CHI Log D procedure; pH 7.4
  CHI Log D: 2.058
